According to the supplement of paper PMC10307832:

How the values were obtained:
Experiment in all cases: relative viability (nuclei count vs DMSO), 5 days (fraction); higher = more cells survive
BAY61-3606 + Tozasertib = compound: COC1=C(C=C(C=C1)C2=CC3=NC=CN3C(=N2)NC4=C(C=CC=N4)C(=O)N)OC [BAY61-3606] + Cc1cc(Nc2cc(N3CCN(C)CC3)nc(Sc3ccc(NC(=O)C4CC4)cc3)n2)n[nH]1 [Tozasertib] (partner 0.1 µM)
Method in brief: (§1)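 A single step with final 0.05% Triton X-100, 1% formaldehyde and 1 ug/ml Hoechst fixed the cells and stained nuclei 5 days after treatment. Lung cancer cell lines in 1536-well plates had been treated by pin tool the day after seeding with one drug alone or a fixed anchor-drug dose plus five library-drug doses (not always all listed) in √10 steps, and nuclei were counted on 4× images. Relative viability is the ratio of nuclei in treated wells to nuclei in vehicle wells, taken as the median of duplicate plates.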

BAY61-3606 + Trametinib = compound: COC1=C(C=C(C=C1)C2=CC3=NC=CN3C(=N2)NC4=C(C=CC=N4)C(=O)N)OC [BAY61-3606] + CC(=O)Nc1cccc(-n2c(=O)n(C3CC3)c(=O)c3c(Nc4ccc(I)cc4F)n(C)c(=O)c(C)c32)c1 [Trametinib] (partner 0.02 µM)
Method in brief: as §1

BAY61-3606 + Foretinib = compound: COC1=C(C=C(C=C1)C2=CC3=NC=CN3C(=N2)NC4=C(C=CC=N4)C(=O)N)OC [BAY61-3606] + COc1cc2c(Oc3ccc(NC(=O)C4(C(=O)Nc5ccc(F)cc5)CC4)cc3F)ccnc2cc1OCCCN1CCOCC1 [Foretinib] (partner 0.25 µM)
Method in brief: as §1

BAY61-3606 + Navitoclax = compound: COC1=C(C=C(C=C1)C2=CC3=NC=CN3C(=N2)NC4=C(C=CC=N4)C(=O)N)OC [BAY61-3606] + CC1(C)CCC(c2ccc(Cl)cc2)=C(CN2CCN(c3ccc(C(=O)NS(=O)(=O)c4ccc(N[C@H](CCN5CCOCC5)CSc5ccccc5)c(S(=O)(=O)C(F)(F)F)c4)cc3)CC2)C1 [Navitoclax] (partner 0.5 µM)
Method in brief: as §1

## UMC-11
BAY61-3606 + Tozasertib; first compound 0.02 µM
  relative viability: 0.2
BAY61-3606 + Tozasertib; first compound 0.06325 µM
  relative viability: 0.208
BAY61-3606 + Tozasertib; first compound 0.2 µM
  relative viability: 0.207
BAY61-3606 + Tozasertib; first compound 0.6325 µM
  relative viability: 0.201
BAY61-3606 + Tozasertib; first compound 2 µM
  relative viability: 0.192
BAY61-3606 + Trametinib; first compound 0.02 µM
  relative viability: 0.823
BAY61-3606 + Trametinib; first compound 0.06325 µM
  relative viability: 0.63
BAY61-3606 + Trametinib; first compound 0.2 µM
  relative viability: 0.509
BAY61-3606 + Trametinib; first compound 0.6325 µM
  relative viability: 0.759
BAY61-3606 + Trametinib; first compound 2 µM
  relative viability: 0.688
BAY61-3606 + Foretinib; first compound 0.02 µM
  relative viability: 1.23
BAY61-3606 + Foretinib; first compound 0.06325 µM
  relative viability: 1.12
BAY61-3606 + Foretinib; first compound 0.2 µM
  relative viability: 1.05
BAY61-3606 + Foretinib; first compound 0.6325 µM
  relative viability: 1.15
BAY61-3606 + Foretinib; first compound 2 µM
  relative viability: 1.02
BAY61-3606 + Navitoclax; first compound 0.02 µM
  relative viability: 0.339
BAY61-3606 + Navitoclax; first compound 0.06325 µM
  relative viability: 0.324
BAY61-3606 + Navitoclax; first compound 0.2 µM
  relative viability: 0.309
BAY61-3606 + Navitoclax; first compound 0.6325 µM
  relative viability: 0.344
BAY61-3606 + Navitoclax; first compound 2 µM
  relative viability: 0.164
